Common to all, as to type: functional
Assay [1] relates to Escherichia coli. The assay can be described thus: Antibacterial activity against Escherichia coli incubated for 20 hrs by microbroth dilution method. Background: Broth dilution looks for growth in wells or tubes with falling amounts of substance.
Assay [2] deals with Staphylococcus aureus. The assay can be described thus: Antibacterial activity against methicillin-resistant Staphylococcus aureus incubated for 20 hrs by microbroth dilution method.
Assay [3] concerns Bacillus subtilis. Briefly: Antibacterial activity against Bacillus subtilis incubated for 20 hrs by microbroth dilution method.
Assay [4] concerns Staphylococcus aureus. Briefly: Antibacterial activity against Staphylococcus aureus incubated for 20 hrs by microbroth dilution method.

The structures appear in SMILES notation. Values after ≈ are worked out from the molar mass of the structure shown. Bounds are passed on as bounds.

The term MIC denotes the least concentration at which growth counts as inhibited. A higher MIC goes with weaker potency. On to `Fc1ccc2c(c1)[nH]c1cc(F)cc(F)c12`, for which the MIC in assay [1] was 25 µg/mL (≈ 113 µM); in assay [2] it was 12.5 µg/mL (≈ 56.5 µM); in assay [3] it was 3.12 µg/mL (≈ 14.1 µM); in assay [4], 1.56 µg/mL (≈ 7.05 µM).
For the compound `CCc1ccc2[nH]c3c(C)ccc(F)c3c2c1`, the MIC in assay [2], in assay [3] and in assay [4] was 3.12 µg/mL (≈ 13.7 µM) each time.
For `Fc1cc(F)c2c(c1)[nH]c1ccccc12`, the MIC in assay [1] is 25 µg/mL (≈ 123 µM); in assay [2] it was 12.5 µg/mL (≈ 61.5 µM); in assay [3], 6.25 µg/mL (≈ 30.8 µM); in assay [4], 25 µg/mL (≈ 123 µM).
For `Fc1ccc2[nH]c3c(F)cc(F)c(F)c3c2c1`, the MIC was determined as 6.25 µg/mL (≈ 26.1 µM) in assay [2], 3.12 µg/mL (≈ 13.1 µM) in assay [3] and 1.56 µg/mL (≈ 6.52 µM) in assay [4].
For `Fc1cc(F)c2[nH]c3cc(C(F)(F)F)ccc3c2c1F`, in that order: 3.12 µg/mL (≈ 10.8 µM), 0.78 µg/mL (≈ 2.7 µM) and 0.78 µg/mL (≈ 2.7 µM).
For `Cc1ccc(F)c2c1[nH]c1ccccc12`, in that order: 12.5 µg/mL (≈ 62.7 µM), 6.25 µg/mL (≈ 31.4 µM) and 50 µg/mL (≈ 251 µM).
For `CCc1ccc2[nH]c3cc(F)cc(F)c3c2c1`, in that order: 3.12 µg/mL (≈ 13.5 µM), 3.12 µg/mL (≈ 13.5 µM) and 1.56 µg/mL (≈ 6.75 µM).
`Fc1ccc2c(c1)[nH]c1c(F)cc(F)c(F)c12`: the MIC in assay [2] came out at 6.25 µg/mL (≈ 26.1 µM); in assay [3] it was 3.12 µg/mL (≈ 13.1 µM); in assay [4], 3.12 µg/mL (≈ 13.1 µM).
On to `CCc1ccc2[nH]c3c(F)cc(F)c(F)c3c2c1`, for which the MIC in assay [2], in assay [3] and in assay [4] was 3.12 µg/mL (≈ 12.5 µM) in each case.
With `Cc1ccc2[nH]c3cc(F)cc(F)c3c2c1`, the MIC came out at 3.12 µg/mL (≈ 14.4 µM) in assay [2], 3.12 µg/mL (≈ 14.4 µM) in assay [3] and 100 µg/mL (≈ 460 µM) in assay [4].
In the case of `Cc1ccc2c(c1)[nH]c1c(F)cc(F)c(F)c12`, the MIC in assay [2] was found to be 6.25 µg/mL (≈ 26.6 µM); in assay [3], 3.12 µg/mL (≈ 13.3 µM); in assay [4], 6.25 µg/mL (≈ 26.6 µM).
As to `Cc1ccc2[nH]c3c(C)ccc(F)c3c2c1`, the MIC in assay [2], in assay [3] and in assay [4] was 6.25 µg/mL (≈ 29.3 µM) each time.
For `Fc1cc(F)c2c(c1)[nH]c1ccc(F)cc12`, the MIC in assay [1] worked out at 12.5 µg/mL (≈ 56.5 µM); in assay [2], 3.12 µg/mL (≈ 14.1 µM); in assay [3], 3.12 µg/mL (≈ 14.1 µM); in assay [4], 1.56 µg/mL (≈ 7.05 µM).
For the compound `Cc1ccc(F)c2c1[nH]c1cc(C(F)(F)F)ccc12`, the values for the MIC in assay [2], in assay [3] and in assay [4] were 3.12 µg/mL (≈ 11.7 µM), 3.12 µg/mL (≈ 11.7 µM) and 1.56 µg/mL (≈ 5.84 µM), respectively.
For `Cc1ccc2[nH]c3c(F)cc(F)c(F)c3c2c1`, the minimum inhibitory concentration (MIC) amounted to 6.25 µg/mL (≈ 26.6 µM) in assay [2], 3.12 µg/mL (≈ 13.3 µM) in assay [3] and 6.25 µg/mL (≈ 26.6 µM) in assay [4].
Regarding `Cc1ccc(F)c2c1[nH]c1cc(F)ccc12`, the minimum inhibitory concentration (MIC) was 6.26 µg/mL (≈ 28.8 µM) in assay [2], 6.25 µg/mL (≈ 28.8 µM) in assay [3] and 50 µg/mL (≈ 230 µM) in assay [4].
For `Fc1cc(F)c2c(c1)[nH]c1cc(C(F)(F)F)ccc12`, in that order: 3.12 µg/mL (≈ 11.5 µM), 0.78 µg/mL (≈ 2.88 µM) and 0.39 µg/mL (≈ 1.44 µM).
On to `Cc1ccc2c(c1)[nH]c1cc(F)cc(F)c12`, for which the MIC in assay [2], in assay [3] and in assay [4] was 3.12 µg/mL (≈ 14.4 µM) each time.
For the compound `Fc1cc(F)c2[nH]c3ccccc3c2c1F`, the figures for the MIC in assay [2], in assay [3] and in assay [4] were 12.5 µg/mL (≈ 56.5 µM), 6.25 µg/mL (≈ 28.3 µM) and 6.25 µg/mL (≈ 28.3 µM), respectively.
As for `CC1(C)S[C@@H]2[C@H](NC(=O)[C@H](N)c3ccccc3)C(=O)N2[C@H]1C(=O)O` [AMPICILLIN], the MIC in assay [1] was 3.12 µg/mL (≈ 8.94 µM); in assay [3] it was less than 0.2 µg/mL; in assay [4], 0.2 µg/mL (≈ 0.572 µM).
With `C[C@@H](O)[C@H]1C(=O)N2C(C(=O)O)=C(S[C@@H]3CN[C@H](C(=O)N(C)C)C3)[C@H](C)[C@H]12` [MEROPENEM], the MIC in assay [1] is 0.05 µg/mL (≈ 0.13 µM); in assay [2], 0.78 µg/mL (≈ 2.03 µM); in assay [3] it was 3.12 µg/mL (≈ 8.15 µM); in assay [4], 0.78 µg/mL (≈ 2.03 µM).
With `CN[C@@H]1[C@H](O[C@H]2[C@H](O[C@H]3[C@H](O)[C@@H](O)[C@H](N=C(N)N)[C@@H](O)[C@@H]3N=C(N)N)O[C@@H](C)[C@]2(O)C=O)O[C@@H](CO)[C@H](O)[C@H]1O` [STREPTOMYCIN], the MIC in assay [1] worked out at 3.12 µg/mL (≈ 5.37 µM); in assay [2], 3.12 µg/mL (≈ 5.37 µM); in assay [3], 3.21 µg/mL (≈ 5.53 µM); in assay [4] it was 3.12 µg/mL (≈ 5.37 µM).

For the origin of these results see ChEMBL document CHEMBL3763069, “Synthesis of fluorinated carbazoles via C-H arylation catalyzed by Pd/Cu bimetal system and their antibacterial activities” (2016).
